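Five compound concentrations were applied to cells in 96-well plates for 48 hours; endpoints were derived by simple linear interpolation of the resulting dose-response curve. GI50: concentration for 50% inhibition of growth.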 The source made the active and inactive calls. Cut-off read from the data, not from the text of the source: active = GI50 up to about 1.1 µM and inactive = higher.
What was measured:
Test in all cases: DTP human tumour cell line panel, 48 h
[1] = tested on: HOP-92
[2] = tested on: K562
[3] = tested on: HL-60
[4] = tested on: CAKI-1
[5] = tested on: SF-295
[6] = tested on: MOLT-4
[7] = tested on: RXF 393
[8] = tested on: NCI-H226
[9] = tested on: HCT-116
[10] = tested on: UO-31
[11] = tested on: OVCAR-4
[12] = tested on: SK-MEL-28
[13] = tested on: MCF7
[14] = tested on: SF-539
[15] = tested on: SK-MEL-5
[16] = tested on: SNB-75
[17] = tested on: SN12C
[18] = tested on: HCC 2998
[19] = tested on: SK-MEL-2
[20] = tested on: ACHN

SMILES	GI50 [1]	GI50 [2]	GI50 [3]	GI50 [4]	GI50 [5]	GI50 [6]	GI50 [7]	GI50 [8]	GI50 [9]	GI50 [10]	GI50 [11]	GI50 [12]	GI50 [13]	GI50 [14]	GI50 [15]	GI50 [16]	GI50 [17]	GI50 [18]	GI50 [19]	GI50 [20]
O=C1c2ccccc2C(O)(C(=O)O)C1(O)CC=C(Cl)Cl (centres undefined)	> 74.6 µM (inactive)	> 125 µM (inactive)	> 125 µM (inactive)	> 125 µM (inactive)	> 125 µM (inactive)	> 125 µM (inactive)	> 125 µM (inactive)	> 125 µM (inactive)	> 125 µM (inactive)	> 112 µM (inactive)	> 125 µM (inactive)	> 125 µM (inactive)	> 125 µM (inactive)	> 125 µM (inactive)	> 125 µM (inactive)	> 125 µM (inactive)	> 125 µM (inactive)	> 125 µM (inactive)	> 125 µM (inactive)	
N#Cc1c(-c2ccc([N+](=O)[O-])cc2)c(C#N)c(=O)n(NS(=O)(=O)c2ccccc2)c1O	> 100 µM (inactive)	> 100 µM (inactive)	> 100 µM (inactive)	> 100 µM (inactive)	> 100 µM (inactive)	> 100 µM (inactive)	> 100 µM (inactive)	> 100 µM (inactive)	> 100 µM (inactive)		> 100 µM (inactive)	> 100 µM (inactive)	> 100 µM (inactive)	> 100 µM (inactive)	> 100 µM (inactive)		> 100 µM (inactive)	> 100 µM (inactive)	> 100 µM (inactive)	> 100 µM (inactive)
CCC(=O)OCN(C)c1nc(N(C)COC(=O)CC)nc(N(C)COC(=O)CC)n1	89.5 µM (inactive)	13.7 µM (inactive)	> 10 µM (inactive)	63.8 µM (inactive)	> 100 µM (inactive)	20.8 µM (inactive)	10.9 µM (inactive)	85.5 µM (inactive)	22.9 µM (inactive)	56.6 µM (inactive)	30.5 µM (inactive)	64.9 µM (inactive)	42 µM (inactive)		22.9 µM (inactive)	> 100 µM (inactive)	39.8 µM (inactive)	24.6 µM (inactive)	18.2 µM (inactive)	
COc1cc(C2C3=C(N=C4SC(C(C)=O)=C(C)N42)c2ccccc2CC3)cc(OC)c1OC (centres undefined)	> 100 µM (inactive)	26.4 µM (inactive)	30.8 µM (inactive)		68.7 µM (inactive)	> 10 µM (inactive)	46.8 µM (inactive)	> 100 µM (inactive)	> 100 µM (inactive)	> 100 µM (inactive)	> 100 µM (inactive)	> 100 µM (inactive)	75.5 µM (inactive)	> 100 µM (inactive)	41.8 µM (inactive)	53.7 µM (inactive)	> 100 µM (inactive)	> 100 µM (inactive)	> 100 µM (inactive)	> 100 µM (inactive)
CN(C)/N=N/c1ccc(NC=O)cc1	> 100 µM (inactive)	43.3 µM (inactive)	51.9 µM (inactive)	> 100 µM (inactive)	> 100 µM (inactive)	55.8 µM (inactive)	> 100 µM (inactive)		> 100 µM (inactive)	82.8 µM (inactive)	> 100 µM (inactive)	> 100 µM (inactive)	> 100 µM (inactive)	> 100 µM (inactive)	> 100 µM (inactive)	> 100 µM (inactive)	> 100 µM (inactive)	> 100 µM (inactive)	> 100 µM (inactive)	> 100 µM (inactive)
Oc1ccc(C(=C(Br)c2ccccc2)c2ccc(O)cc2)cc1	10 µM (inactive)	2.78 µM (inactive)	3.39 µM (inactive)	16.6 µM (inactive)	6.14 µM (inactive)	5.48 µM (inactive)	12.1 µM (inactive)	15.8 µM (inactive)	4.25 µM (inactive)	6.59 µM (inactive)	> 10 µM (inactive)	10.4 µM (inactive)	3.13 µM (inactive)	6.18 µM (inactive)	3.47 µM (inactive)		5.92 µM (inactive)	8.65 µM (inactive)	5.74 µM (inactive)	9.16 µM (inactive)
O=C1CC2(CCC(O)(c3cccc4ccccc34)C(C(=O)c3cccc4ccccc34)C2)C(=O)c2ccccc2N1 (centres undefined)	7.43 µM (inactive)	15.6 µM (inactive)	> 10 µM (inactive)	25.9 µM (inactive)	12.6 µM (inactive)	25.9 µM (inactive)	4.1 µM (inactive)	> 100 µM (inactive)	23.6 µM (inactive)	23.7 µM (inactive)		11.1 µM (inactive)	36 µM (inactive)	48 µM (inactive)	24.8 µM (inactive)	10.7 µM (inactive)	72.8 µM (inactive)	26.1 µM (inactive)	> 100 µM (inactive)	
COc1cc(C(=O)C2CC3(CCC2(O)c2cc(OC)c(OC)c(OC)c2)CC(=O)Nc2ccccc2C3=O)cc(OC)c1OC (centres undefined)	40.4 µM (inactive)	63.8 µM (inactive)	30.5 µM (inactive)	> 100 µM (inactive)	98.2 µM (inactive)	33 µM (inactive)	99.5 µM (inactive)	> 100 µM (inactive)	67.1 µM (inactive)	33.7 µM (inactive)	20.2 µM (inactive)	> 100 µM (inactive)	60.4 µM (inactive)	> 100 µM (inactive)	21.3 µM (inactive)	24.5 µM (inactive)	> 100 µM (inactive)	50.7 µM (inactive)	89.9 µM (inactive)	
CCn1c(=O)c(C(=O)O)c(Cl)c2cc3c(cc21)OCO3	> 100 µM (inactive)	> 100 µM (inactive)	> 100 µM (inactive)	> 100 µM (inactive)	> 100 µM (inactive)	> 100 µM (inactive)	> 100 µM (inactive)	> 100 µM (inactive)	> 100 µM (inactive)	> 100 µM (inactive)	> 100 µM (inactive)	> 100 µM (inactive)	> 100 µM (inactive)	> 100 µM (inactive)	> 100 µM (inactive)	> 100 µM (inactive)	> 100 µM (inactive)	> 100 µM (inactive)	> 100 µM (inactive)	
CC1CC(C)(O)C2C3(C)CCCC2(COC3=O)C12CCC1(CCOC1=O)O2 (centres undefined)	> 250 µM (inactive)	> 250 µM (inactive)	> 250 µM (inactive)	> 250 µM (inactive)	> 250 µM (inactive)	> 250 µM (inactive)	> 250 µM (inactive)	> 250 µM (inactive)	> 250 µM (inactive)	> 238 µM (inactive)	> 250 µM (inactive)	> 250 µM (inactive)	> 250 µM (inactive)	> 250 µM (inactive)	> 250 µM (inactive)	> 250 µM (inactive)	> 250 µM (inactive)	> 250 µM (inactive)	> 250 µM (inactive)	
NCC(=O)N[C@H]1c2ccsc2/C(=N/O)[C@H]1O	> 100 µM (inactive)	> 100 µM (inactive)	> 100 µM (inactive)	> 100 µM (inactive)	> 100 µM (inactive)	> 100 µM (inactive)	> 100 µM (inactive)	> 100 µM (inactive)	> 100 µM (inactive)	> 100 µM (inactive)	68.9 µM (inactive)	> 100 µM (inactive)	> 100 µM (inactive)	> 100 µM (inactive)	> 100 µM (inactive)		> 100 µM (inactive)	> 100 µM (inactive)	> 100 µM (inactive)	
CCOC(=O)c1csc(NC(=O)C(C)N2CCCCC2)n1 (centres undefined)	> 100 µM (inactive)	> 100 µM (inactive)	> 100 µM (inactive)	> 100 µM (inactive)	> 100 µM (inactive)	> 100 µM (inactive)	> 100 µM (inactive)			> 100 µM (inactive)	> 100 µM (inactive)	> 100 µM (inactive)	> 100 µM (inactive)	> 100 µM (inactive)	> 100 µM (inactive)	> 100 µM (inactive)		> 100 µM (inactive)	> 100 µM (inactive)	> 100 µM (inactive)
CC1(C)N=C(N)N=C(N)N1c1ccc(CCc2ccccc2)cc1	22.1 µM (inactive)	2.23 µM (inactive)	13.3 µM (inactive)	21.6 µM (inactive)	2.17 µM (inactive)	3.61 µM (inactive)	> 20.9 µM (inactive)	14.2 µM (inactive)	0.619 µM (active)	> 34.1 µM (inactive)	3.53 µM (inactive)	6.01 µM (inactive)	1.32 µM (inactive)	2.78 µM (inactive)	0.741 µM (active)	28.5 µM (inactive)	0.759 µM (active)	2.14 µM (inactive)	8.85 µM (inactive)	
Cc1c2ccncc2c(C)c2c1[nH]c1ccccc12 [ELLIPTECINE]	0.538 µM (active)	0.47 µM (active)	0.883 µM (active)	1.21 µM (inactive)	0.805 µM (active)	0.256 µM (active)	0.288 µM (active)	1.42 µM (inactive)	0.272 µM (active)	1.95 µM (inactive)	0.802 µM (active)	1.5 µM (inactive)	0.571 µM (active)	0.867 µM (active)	0.944 µM (active)	1.47 µM (inactive)	1.06 µM (active)	2.68 µM (inactive)	2.77 µM (inactive)	
CC(C)c1oc(=O)cc2c1C(O)C1OC(=O)C3(C)C(O)C4OC4C2(C)C13 (centres undefined) [NAGILACTONE]	0.7 µM (active)	1.01 µM (active)	0.478 µM (active)	2.08 µM (inactive)	1.65 µM (inactive)	0.83 µM (active)	1.62 µM (inactive)	2.16 µM (inactive)	1.09 µM (active)	4.52 µM (inactive)	2.12 µM (inactive)	1.37 µM (inactive)	0.728 µM (active)	0.989 µM (active)	0.628 µM (active)	1.92 µM (inactive)	1.31 µM (inactive)	1.86 µM (inactive)	2.16 µM (inactive)	

— ChEMBL document CHEMBL1201862, “PubChem BioAssay data set” (2004)
